The values that follow come from patent US20260042754A1, “Substituted Bicyclic Heteroaryl Sulfonamide Derivatives for the Treatment of Cancer” (NODUS ONCOLOGY LIMITED, priority 2022, published 2026).

Experiment [1] has as its target human PARG (PARG-NanoLuc fusion in HEK293T cells) (Homo sapiens (Human), UniProt Q86W56). The experiment in a line: PARG NanoBRET-based cellular target engagement assay. The class given is cell-based. Particulars: HEK293T cells transfected with PARG-NanoLuc, NanoBRET probe 0.89 μM, 2 hours; read-out: PARG TE IC50. Here is the method: PARG Nano-luciferase construct: The PARG-NanoLuc® fusion vector was generated by Promega, by inserting the full length human PARG cDNA sequence encoding the 976 amino acid protein (Gene ID: 8505, UniProt: Q86W56) into the pNLF1-C [CMV/Hygro] vector (C-terminal fusions with NanoLuc® enzyme).
PARG target engagement tracer synthesis: The NanoBRET tracer for PARG was prepared following a previously reported general tracer synthesis procedure.
PARG Probe Displacement Assay Using NanoBRET: HEK293T (DSMZ #ACC 635) cells transiently transfected with the PARG-NanoLuc fusion construct were resuspended in phenol red-free OptiMEM (Gibco #11058-021) to a concentration of 2.4×10^5 cells/mL. 9 μL per well were then added to a white 384-well low volume microplate (Greiner #784080) and incubated for 24 hours under standard growth conditions.
Then compound was dispensed into each well using an Echo dispenser (BeckmanCoulter) to yield the pre-specified final concentration of the range of concentrations to be tested (typically 8-point serial concentrations ranging from either from 0.01 to 10 μM, or from 0.001 to 1 μM, or from 0.0001 to 0.1 μM), and being volume-corrected with 100% DMSO (0.5% final DMSO concentration in reaction mixtures).
After mixing and an incubation at room temperature for 15 min 1 μl of the NanoBRET probe (at 0.89 μM final concentration) was added to the microplate using a multichannel pipette. The plate was mixed and incubated in a 5% CO2 environment at 37° C. for 2 hours, and then 5 μL per well of a solution consisting of a 1:31.25 dilution of Nano-Glo substrate (Promega) and a 1:500 dilution of NanoLuc extracellular inhibitor (Promega) in phenol red-free OptiMEM was added to each well followed by another mixing step. Filtered luminescence was measured on an EnVision plate reader (PerkinElmer) equipped with a 460 nm filter (donor) and a 645 nm filter (acceptor). BRET ratios were plotted as concentration-response curves fitted to a sigmoidal 4-parameter logistic model to calculate IC50 values (Scigilian Analyze).

Experiment [2] deals with Recombinant His-tagged human PARG protein (Homo sapiens (Human), UniProt Q86W56). Nature of the experiment: PARG enzymatic assay (TFMU-ADPr fluorescence). The class given is biochemical. Particulars: 1 nM enzyme, 200 μM TFMU-ADPr, read after 30 minutes. Here is the method: Inhibition of PARG enzymatic activity by compounds was determined as follows: Recombinant His-tagged human PARG protein expressed in Sf21 insect cells (Adipogen AG, #40T-0022) was aliquoted and stored at −80° C. until use. The artificial enzyme substrate 4-(trifluoromethyl)umbelliferone (TFMU)-ADPr was prepared essentially as described (Drown B S et al, Cell Chemical Biology 2018) and stored at −20° C. as 10 mM stock solutions in DMSO (dimethyl sulfoxide) until use. For reactions, typical final concentration of the enzyme was 1 nM and of the TFMU-ADPr 200 μM. Reactions were carried out in black 384-well low volume round bottom assay plates (Corning, #4514) in a final volume of 10 μL. To this end, PARG was diluted to 1.67 nM in reaction buffer (50 mM K2HPO4, 50 mM KCl, 10 mM β-mercaptoethanol, pH 7.4) and 6 μL were dispensed per assay well using a multichannel pipette. Then compound was dispensed into each well using an Echo dispenser (BeckmanCoulter) to yield the pre-specified final concentration of the range of concentrations to be tested (typically 8-point serial concentrations ranging from either from 0.01 to 10 μM, or from 0.001 to 1 μM, or from 0.0001 to 0.1 μM), and being volume-corrected with 100% DMSO (0.5% final DMSO concentration in reaction mixtures). Plates were mixed, and after 15 minutes 4 μL TFMU-ADPr was added into each well using a multichannel pipette followed by brief mixing. Fluorescence intensity signals were then measured after 30 minutes on an EnVision microplate reader (PerkinElmer) using 380/10 nm and 535/25 nm filters for the excitation and emission, respectively (gain: 150). The assay window was set using DMSO control (top) and a control containing no PARG enzyme (bottom). Delta values were plotted as concentration-response curves fitted to a sigmoidal 4-parameter logistic model to calculate IC50 values (Scigilian Analyze).

The subject of another experiment is NCI-H1650. The experiment in a line: Modified cell proliferation assay (CellTiter-Glo), NCI-H1650. The class given is cell-based. Particulars: Homo sapiens, NCI-H1650; modified protocol, 384-well, 300 cells per well, 120 h; highest concentration tested 30000 nM; read-out: NCI-H1650 GI50 (high PARG dependency). How it is done: The cell proliferation assay protocol was modified and used for RMUG-S for Examples 12-44, and subsequently used to test Examples 1-44 in the NCI-H1650 cell line.
NCI-H1650 (ATCC, #CRL-5883) or RMUG-S were seeded on day 1 at 300 cells per well in a 384-well plate (Greiner, #781080) that assure assay linearity and optimal signal intensity in 25 μL of RPMI1640 media (Pan Biotech, #P04-22100) containing 10% FCS (Capricorn, #FBS-11A; Lot. CP22-5141) and 1% Glutamine (Pan Biotech, #P04-80100). After incubation for 24 h in humidified chambers at 37° C./5% CO2, compounds/DMSO were dispensed at different concentrations using an Echo 520 (Beckman Coulter). Cells were further incubated for 120 h at 37° C. and 5% CO2. Cells treated with the compound vehicle DMSO were used as negative controls and cells treated with 10 μM Staurosporine (LC Laboratories, #S-9300) served as positive controls.
At day 6 the CellTiter Glo Reagent was prepared according to the instructions of the kit (Promega Inc.): Reagent was mixed 1:1 with cell culture medium. Thereon, mixture and assay plates were equilibrated at room temperature for 20 min. Equal volumes of the reagent-medium-mixture were added to the volume of culture medium present in each well. The plates were mixed at […] for 2 minutes on an orbital shaker (Timix5, Edmund Buehler GmbH). The microplates were then incubated at room temperature for 10 minutes for stabilization of the luminescent signal. Following incubation, the luminescence was recorded on a Victor X5 microplate reader (Perkin Elmer) using a 200 ms integration time. The data was then analyzed with Excel using the XLFIT Plugin (dose response Fit 205) for determination of the concentration necessary for half-maximal inhibition (i.e. the inflection point of the fitted curve).
As quality control the Z′-factor was calculated from 16 positive and negative control values. Only assay results showing a Z′-factor≥0.5 were used for further analysis.
For orientation: Cellular ATP, detected with luciferase, serves as a proxy for viable cell number.

Recombinant His-tagged human PARG protein, sequence (Q86W56 whole entry): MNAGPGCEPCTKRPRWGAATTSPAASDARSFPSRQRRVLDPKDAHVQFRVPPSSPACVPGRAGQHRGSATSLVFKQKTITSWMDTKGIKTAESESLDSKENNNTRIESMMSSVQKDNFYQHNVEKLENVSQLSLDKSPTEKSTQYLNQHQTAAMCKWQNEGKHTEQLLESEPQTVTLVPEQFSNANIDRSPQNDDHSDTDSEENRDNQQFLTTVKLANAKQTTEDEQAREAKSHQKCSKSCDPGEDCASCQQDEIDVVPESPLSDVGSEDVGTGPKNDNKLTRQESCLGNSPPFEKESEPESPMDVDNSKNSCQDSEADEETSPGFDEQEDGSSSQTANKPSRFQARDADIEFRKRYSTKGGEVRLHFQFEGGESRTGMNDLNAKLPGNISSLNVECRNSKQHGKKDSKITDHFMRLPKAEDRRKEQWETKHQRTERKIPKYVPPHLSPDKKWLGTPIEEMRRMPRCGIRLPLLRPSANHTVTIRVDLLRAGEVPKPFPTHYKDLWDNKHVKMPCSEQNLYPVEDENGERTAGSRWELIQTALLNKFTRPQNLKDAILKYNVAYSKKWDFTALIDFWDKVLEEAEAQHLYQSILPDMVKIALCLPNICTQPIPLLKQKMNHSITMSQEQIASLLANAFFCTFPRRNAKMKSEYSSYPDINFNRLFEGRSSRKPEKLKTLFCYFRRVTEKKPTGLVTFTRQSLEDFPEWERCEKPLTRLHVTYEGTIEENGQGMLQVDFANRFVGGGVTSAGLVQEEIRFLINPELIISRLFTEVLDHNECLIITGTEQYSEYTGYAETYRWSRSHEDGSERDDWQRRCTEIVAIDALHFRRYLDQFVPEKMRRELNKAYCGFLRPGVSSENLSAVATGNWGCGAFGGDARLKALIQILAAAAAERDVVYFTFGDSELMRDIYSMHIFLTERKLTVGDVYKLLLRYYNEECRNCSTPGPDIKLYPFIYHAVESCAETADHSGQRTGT
human PARG (PARG-NanoLuc fusion in HEK293T cells), sequence (Q86W56 whole entry, the tested form may be a part): as the sequence (Q86W56 whole entry) above

Broadly, the IC50 is the midpoint of a concentration-inhibition curve. By GI50 is commonly meant the concentration at which growth is held to half of that of the control. Take `CO/N=c1\[nH]c2c(Cl)cc(S(=O)(=O)NC3(C)CC3)cc2c(=O)n1Cc1cnn(C)c1` [Example 4, 8-chloro-2-methoxyimino-N-(1-methylcyclopropyl)-3-[(1-methylpyrazol-4-yl)methyl]-4-oxo-1H-quinazoline-6-sulfonamide]: the IC50 was 0.03 to 0.099 µM in experiment [1] and under 0.03 µM in experiment [2]. Further, the concentration for 50% growth inhibition (GI50) with NCI-H1650 is over 2 µM.

As to `CO/N=c1\[nH]c2c(N3CCN(C(=O)N(C)C4CC4)[C@H](C)C3)cc(S(=O)(=O)NC3(C)CC3)cc2c(=O)n1Cc1cnn(C)c1` (single isomer, unassigned) [Example 44], the IC50 in experiment [1] and in experiment [2] was under 0.03 µM throughout.

In the case of `CO/N=c1\[nH]c2c(-c3ccc(C(=O)N(C)C)c(C)c3)cc(S(=O)(=O)NC3(C)CC3)cc2c(=O)n1Cc1cnn(C)c1` [Example 14, (E)-4-(2-(methoxyimino)-3-((1-methyl-1H-pyrazol-4-yl)methyl)-6-(N-(1-methylcyclopropyl)sulfamoyl)-4-oxo-1,2,3,4-tetrahydroquinazolin-8-yl)-N,N,2-trimethylbenzamide], the concentration for half-maximal inhibition (IC50) in experiment [1] and in experiment [2] was under 0.03 µM throughout. Further, the concentration for 50% growth inhibition (GI50) in the experiment with NCI-H1650 was under 0.5 µM.

In the case of `CO/N=c1\[nH]c2c(N3CCN(C(=O)N4CCCC4)[C@H](C)C3)cc(S(=O)(=O)NC3(C)CC3)cc2c(=O)n1Cc1cnn(C)c1` [Example 40, (R,E)-2-(methoxyimino)-3-((1-methyl-1H-pyrazol-4-yl)methyl)-8-(3-methyl-4-(pyrrolidine-1-carbonyl)piperazin-1-yl)-N-(1-methylcyclopropyl)-4-oxo-1,2,3,4-tetrahydroquinazoline-6-sulfonamide], the IC50 in experiment [1] and in experiment [2] was under 0.03 µM throughout. In addition, the concentration for 50% growth inhibition (GI50) in the experiment with NCI-H1650 is under 0.5 µM.

For the compound `CO/N=c1\[nH]c2c(-c3ccc(CN)cc3)cc(S(=O)(=O)NC3(C)CC3)cc2c(=O)n1Cc1cnn(C)c1` [Example 17, (E)-8-(4-(aminomethyl)phenyl)-2-(methoxyimino)-3-((1-methyl-1H-pyrazol-4-yl)methyl)-N-(1-methylcyclopropyl)-4-oxo-1,2,3,4-tetrahydroquinazoline-6-sulfonamide], the IC50 in experiment [1] fell in the range of 0.1 to 1 µM; in experiment [2], 0.03 to 0.099 µM. Moreover, the GI50 in the experiment with NCI-H1650 was over 2 µM.

Turning to `CO/N=c1\[nH]c2c(N3CCN(C(=O)C4CCCC4)[C@H](C)C3)cc(S(=O)(=O)NC3(C)CC3)cc2c(=O)n1Cc1cnn(C)c1` [Example 39, (R,E)-8-(4-(cyclopentanecarbonyl)-3-methylpiperazin-1-yl)-2-(methoxyimino)-3-((1-methyl-1H-pyrazol-4-yl)methyl)-N-(1-methylcyclopropyl)-4-oxo-1,2,3,4-tetrahydroquinazoline-6-sulfonamide], the 50% inhibitory concentration (IC50) in experiment [1] and in experiment [2] was under 0.03 µM in each case. Also, the GI50 in the experiment on NCI-H1650 was under 0.5 µM.

Regarding `CO/N=c1\[nH]c2c(N3CCN(C(=O)C(F)(F)F)[C@H](C)C3)cc(S(=O)(=O)NC3(C)CC3)cc2c(=O)n1Cc1cnn(C)c1` [Example 42, (R,E)-2-(methoxyimino)-3-((1-methyl-1H-pyrazol-4-yl)methyl)-8-(3-methyl-4-(2,2,2-trifluoroacetyl)piperazin-1-yl)-N-(1-methylcyclopropyl)-4-oxo-1,2,3,4-tetrahydroquinazoline-6-sulfonamide], the 50% inhibitory concentration (IC50) in experiment [1] and in experiment [2] was under 0.03 µM throughout.

In the case of `CC(C)O/N=c1\[nH]c2ccc(S(=O)(=O)NC3(C)CC3)cc2c(=O)n1Cc1cnn(C)c1` [Example 11, 2-isopropoxyimino-N-(1-methylcyclopropyl)-3-[(1-methylpyrazol-4-yl)methyl]-4-oxo-1H-quinazoline-6-sulfonamide], the concentration for half-maximal inhibition (IC50) is 0.03 to 0.099 µM in experiment [1] and under 0.03 µM in experiment [2].

For `CO/N=c1\[nH]c2c(-c3ccc(C4(O)CCC4=O)cc3)cc(S(=O)(=O)NC3(C)CC3)cc2c(=O)n1Cc1cnn(C)c1` (stereo not shown) [Example 22, (E)-8-(4-(1-hydroxy-2-oxocyclobutyl)phenyl)-2-(methoxyimino)-3-((1-methyl-1H-pyrazol-4-yl)methyl)-N-(1-methylcyclopropyl)-4-oxo-1,2,3,4-tetrahydroquinazoline-6-sulfonamide], the 50% inhibitory concentration (IC50) in experiment [1] was 0.03 to 0.099 µM; in experiment [2], under 0.03 µM.

As to `CO/N=c1\[nH]c2c(N3CCN(C(=O)C4(C(F)(F)F)CC4)[C@H](C)C3)cc(S(=O)(=O)NC3(C)CC3)cc2c(=O)n1Cc1cnn(C)c1` [Example 32, (R,E)-2-(methoxyimino)-3-((1-methyl-1H-pyrazol-4-yl)methyl)-8-(3-methyl-4-(1-(trifluoromethyl)cyclopropane-1-carbonyl)piperazin-1-yl)-N-(1-methylcyclopropyl)-4-oxo-1,2,3,4-tetrahydroquinazoline-6-sulfonamide], the 50% growth inhibitory concentration (GI50) in the experiment with NCI-H1650 is under 0.5 µM.

As to `CO/N=c1\[nH]c2c(N3CCN(C(=O)C(F)(F)C4(O)CCC4)[C@H](C)C3)cc(S(=O)(=O)NC3(C)CC3)cc2c(=O)n1Cc1cnn(C)c1` (single isomer, unassigned) [Example 43], the IC50 in experiment [1] and in experiment [2] was under 0.03 µM each time.

For `CO/N=c1\[nH]c2ccc(S(=O)(=O)NC3(C)CC3)cc2c(=O)n1Cc1cnn(C(F)(F)F)c1` [Example 6, 2-methoxyimino-N-(1-methylcyclopropyl)-4-oxo-3-[[1-(trifluoromethyl)pyrazol-4-yl]methyl]-1H-quinazoline-6-sulfonamide], the IC50 in experiment [1] and in experiment [2] was 0.1 to 1 µM in each case.
